Experimental data published in patent US9675697B2 (THE REGENTS OF THE UNIVERSITY OF MICHIGAN, priority 2013, dated 2017).
Read-outs that look alike come from different tables or passages of the source.

What was measured:
prostate VCaP cell line = test: Cell growth inhibition, Cell TiterGLO, 4 days; assay type: cell-based; details: Homo sapiens, VCaP, 96 h, treated 4 days, read-out: VCaP cells (IC50 (nM))
K562 = test: Cell growth inhibition in leukemia cell line; assay type: cell-based; details: Homo sapiens
AML-2 = test: Cell growth inhibition in leukemia cell line; assay type: cell-based
Description: (§1) The effect of representative BET bromodomain inhibitors on cell viability was determined in a 4-day proliferation assay. Cells were maintained in the appropriate culture medium with 10% FBS at 37° C. and an atmosphere of 5% CO2. All the cell lines were used within three months of thawing fresh vials.
(§2) Cells were seeded in 96-well flat bottom (Corning COSTAR, Corning, N.Y., cat#3595) or white opaque cell culture plates (BD Falcon, cat#353296) at a density of 3,000-10,000 cells/well in 75 μl of culture medium. Compounds were serially diluted in the appropriate medium, and 75 μl of the diluted compounds were added to the appropriate wells of the cell plate. After the addition of compounds, the cells were incubated at 37° C. in an atmosphere of 5% CO2 for 4 days. Cell viability was determined using the CellTiter-Glo® Luminescent Cell Viability Assay Kit (Promega, Madison, Wis.) for MOLM-13 cells and WST (2-(2-methoxy-4-nitrophenyl)-3-(4-nitrophenyl)-5-(2,4-disulfophenyl)-2H-tetrazolium, monosodium salt) Cell Counting-8 Kit (Dojindo Molecular Technologies, Inc., Rockville, Md.) for MDA-MB-436 cells according to the manufacturers' instructions.

BRD2 BD1 [1] = molecular target: T1, BRD2 BD1 (Homo sapiens (Human), UniProt P25440); test: FP competitive binding assay using Cpd. No. 350 as the probe
T1 sequence (P25440 74-180): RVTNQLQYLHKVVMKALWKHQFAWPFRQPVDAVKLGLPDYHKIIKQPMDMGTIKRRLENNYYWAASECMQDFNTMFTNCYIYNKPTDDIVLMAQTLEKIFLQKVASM
Description: (§8) Fluorescence Polarization (FP) competitive binding studies (see above) were carried out using the FAM labeled fluorescent probe Cpd. No. 350 to determine binding affinities of representative compounds to both BD1 and BD2 of BRD2, BRD3, and BRD4 proteins. Equilibrium dissociation constants (Id) values of Cpd. No. 350 to these six proteins were determined from protein saturation experiments by monitoring the total fluorescence polarization of mixtures composed with the fluorescent probe at a fixed concentration and proteins with increasing concentrations up to full saturation. Serial dilutions of testing protein were mixed with Cpd. No. 350 to a final volume of 200 μl in the assay buffer. […] Plates were incubated at room temperature for 30 minutes with gentle shaking to assure equilibrium. […] Kd values of Cpd.
(§9) The IC50 and Ki values of compounds were determined in a competitive binding experiment as described above. […] FP values were measured as described above. IC50 values were determined by nonlinear regression fitting of the competition curves.

BRD4 BD1 [2] = molecular target: T2, BRD4 BD1 (Homo sapiens (Human), UniProt O60885); test: as above
Description: as §8, §9

BRD2 BD2 [3] = molecular target: T3, BRD2 BD2 (Homo sapiens (Human), UniProt P25440); test: as above
T3 sequence (P25440 344-453): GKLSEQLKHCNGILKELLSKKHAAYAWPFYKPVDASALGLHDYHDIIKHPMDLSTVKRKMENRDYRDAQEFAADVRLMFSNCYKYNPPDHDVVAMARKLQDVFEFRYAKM
Description: as §8, §9

BRD4 BD1 [4] = molecular target: T2, BRD4 BD1; test: OctetRED biolayer interferometry (BLI) binding assay
Description: (§3) Binding affinities of synthesized compounds to BRD2 BD1 and BD2, BRD3 BD1 and BD2, and BRD4 BD1 and BD2 were also determined by a label free binding assay using the OctetRED label free biolayer interferometry (BLI) binding assay.
(§4) BLI measures interference pattern changes of light reflected from an optical layer and a biolayer containing protein targets only or complexed with interacting partners. The assay principle is similar to the surface plasmon resonance (SPR) assay in which the target protein is immobilized on an optical surface and then exposed to potential binding partners in solution. The interaction between the binding partner and the immobilized protein changes the optical properties of the biosensors, resulting in the wavelength shift of reflecting light which will change the interference pattern. Association and dissociation rates can be obtained by fitting the real time wavelength shift of the based on a proper binding model, from which KD values can be obtained thereafter.
(§5) Biotin labeled BRD proteins (10 μg/ml) in kinetic assay buffer (PBS, pH 7.4, 0.1% BSA and 0.01% Tween-20) were immobilized on Super Streptavidin (SSA) sensors for 15 minutes followed by washing in kinetic buffer for 10 minutes to eliminate any loose non-specific immobilization. […] These protein coated sensors were then immersed into the testing compound solutions, starting from the one with the lowest concentration, where compound association occurs and then returned to the fresh buffer for the dissociation. The same operation was repeated for the next solution with higher concentration up to the one with the highest concentration. […] For each kinetic cycle, kinetic curves for association and dissociation were obtained from raw sensorgrams by using the double reference subtraction protocol included in the analysis program (Data Analysis 7.0) provided by the manufacturer, in which nonspecific interaction and buffer drift were both corrected. The association and dissociation rate constants (kon and koff) were determined using the global fitting protocol in the analysis program based on a reversible 1:1 binding model. The equilibrium association constant (KA) was calculated thereafter. All binding data were collected at 30 degree. Assay plates were kept being shaken at 1000 RPM in the whole experiment time period to avoid mass transport effect.

BRD4 BD2 [5] = molecular target: T4, BRD4 BD2 (Homo sapiens (Human), UniProt O60885); test: as above
Description: as §3, §4, §5

BRD2 BD1 [6] = molecular target: T1, BRD2 BD1; test: as above
Description: as §3, §4, §5

[7] = system: leukemia MOLM-13 cell line; test: 4-day cell viability assay, CellTiter-Glo; assay type: cell-based; details: 4 days, read-out: Cell Growth Inhibition (IC50 (nM)) MOLM-13 Cell Line (CellTiter-Glo assay)
Description: as §1, §2
For the CellTiter-Glo assay, 100 μl of CellTiter-Glo® Reagent was added to each well, and then the plates were incubated at room temperature for 10-20 minutes. The luminescent signal was measured using a Tecan Infinite M1000 multimode microplate reader (Tecan, Morrisville, N.C.). The readings were normalized to the DMSO-treated cells and the IC50 was calculated by nonlinear regression (four parameters sigmoid fitted with variable slope, least squares fit, and no constraint) analysis using the GraphPad Prism 5 software.

BRD4 BD2 [8] = molecular target: T4, BRD4 BD2; test: FP competitive binding assay using Cpd. No. 350 as the probe
Description: as §8, §9

MV4;11 = test: Cell growth inhibition in leukemia cell line; assay type: cell-based
BRD2 BD2 [9] = molecular target: T3, BRD2 BD2; test: OctetRED biolayer interferometry (BLI) binding assay
Description: as §3, §4, §5

[10] = system: breast cancer MDA-MB-436 cell line; test: 4-day cell viability assay, WST; assay type: cell-based; details: Homo sapiens, MDA-MB-436, 96 h; 4 days; read-out: Cell Growth Inhibition (IC50 (nM)) MDA-436 Cell Line (WST assay)
Description: as §1, §2
For the WST assay, WST-8 reagent was added to each well at a final concentration of 10% (v/v), and then the plates were incubated at 37° C. for 1-2 hours for color development. The absorbance was measured at 450 nm using a SPECTRAmax PLUS plate reader (Molecular Devices, Sunnyvale, Calif.). The readings were normalized to the DMSO-treated cells and the half maximal inhibitory concentration (IC50) was calculated by nonlinear regression (four parameters sigmoid fitted with variable slope, least squares fit, and no constraint) analysis using the GraphPad Prism 5 software (GraphPad Software, La Jolla, Calif.).

BRD3 BD2 [11] = molecular target: T5, BRD3 BD2 (Homo sapiens (Human), UniProt Q15059); test: OctetRED biolayer interferometry (BLI) binding assay
T5 sequence (Q15059 306-415): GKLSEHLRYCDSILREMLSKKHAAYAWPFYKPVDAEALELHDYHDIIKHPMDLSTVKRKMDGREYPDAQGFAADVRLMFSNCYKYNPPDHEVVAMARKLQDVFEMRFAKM
Description: as §3, §4, §5

BRD3 BD1 [12] = molecular target: T6, BRD3 BD1 (Homo sapiens (Human), UniProt Q15059); test: as above
T6 sequence (Q15059 34-140): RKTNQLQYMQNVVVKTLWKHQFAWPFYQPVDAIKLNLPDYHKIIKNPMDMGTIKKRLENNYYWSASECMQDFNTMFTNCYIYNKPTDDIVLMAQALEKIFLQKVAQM
Description: as §3, §4, §5

MOLM-13 = test: Cell growth inhibition, CellTiter-Glo, acute leukemia cell line; assay type: cell-based; details: Homo sapiens, MOLM-13, 96 h, 4 days
Description: (§6) Cell growth inhibitory activity of representative BET bromodomain inhibitors was determined using CellTiter-Glo® Luminescent Cell Viability Assay. For leukemia cell lines MV-4-11 (ATCC, Manassas, Va.) and MOLM-13 (DSMZ, Germany), cells were seeded in 96-well white opaque cell culture plates at a density of 10,000 cells/well with serially diluted compounds and incubated at 37° C. in an atmosphere of 95% air and 5% CO2 for 4 days. Cell viability was determined using the CellTiter-Glo® Luminescent Cell Viability Assay Kit (Promega, Madison, Wis.) according to the manufacture's instruction. Briefly, a volume of CellTiter-Glo® Reagent equal to the volume of cell culture medium was added to each well, and then the plates were incubated at room temperature for 10-20 minutes. The luminescent signal was measured using a Tecan Infinite M1000 multimode microplate reader (Tecan, Morrisville, N.C.). The half maximal inhibitory concentration (IC50) was calculated using the GraphPad Prism 5 software (GraphPad Software, La Jolla, Calif.).

MV-4-11 = test: as above; assay type: cell-based; details: Homo sapiens, MV4-11, 96 h, 4 days
Description: as §6

BRD4 BD1 [13] = molecular target: T2, BRD4 BD1; test: FP protein saturation experiment with probe Cpd. No. 350; assay type: binding; details: probe 1.5 nM
Description: (§7) Fluorescence Polarization (FP) competitive binding studies (see above) were carried out using the FAM labeled fluorescent probe Cpd. No. 350 to determine binding affinities of representative compounds to both BD1 and BD2 of BRD2, BRD3, and BRD4 proteins. Equilibrium dissociation constants (Id) values of Cpd. […] Final Cpd. […] Kd values of Cpd.

BRD2 BD2 [14] = molecular target: T3, BRD2 BD2; test: as above; assay type: binding; details: probe 1.5 nM
Description: as §7

BRD3 BD2 [15] = molecular target: T5, BRD3 BD2; test: as above; assay type: binding; details: probe 1.5 nM
Description: as §7

BRD4 BD2 [16] = molecular target: T4, BRD4 BD2; test: as above; assay type: binding; details: probe 1.5 nM
Description: as §7

BRD3 BD1 [17] = molecular target: T6, BRD3 BD1; test: as above; assay type: binding; details: probe 1.5 nM
Description: as §7

BRD2 BD1 [18] = molecular target: T1, BRD2 BD1; test: as above; assay type: binding; details: probe 1.5 nM
Description: as §7

[19] = Homo sapiens, MV4-11, cell growth inhibition

Structure (SMILES) | IC50 (K562) | IC50 (AML-2) | Ki (BRD2 BD1 [1]) | Ki (BRD4 BD1 [2]) | Ki (BRD2 BD2 [3]) | Kd (BRD4 BD1 [4]) | Kd (BRD4 BD2 [5]) | Kd (BRD2 BD1 [6]) | IC50 ([7]; Homo sapiens, MOLM-13, 96 h) | Ki (BRD4 BD2 [8]) | IC50 (MV4;11; [19]) | Kd (BRD2 BD2 [9]) | other results
CCc1n[nH]c(CC)c1-c1nccc2[nH]c3cc(-c4c(C)noc4C)c(OC)cc3c12 [Cpd. No. 23, 4-(1-(3,5-diethyl-1H-pyrazol-4-yl)-8-methoxy-5H-pyrido[4,3-b]indol-7-yl)-3,5-dimethylisoxazole] | > 2000 nM | 104 ± 5 nM | 11.1 ± 1 nM | 24.7 ± 1 nM | 11.7 ± 3 nM | 29 ± 8.8 nM | 12.9 ± 2.1 nM | 25.6 ± 3.7 nM | 104 ± 16 nM | 12.2 ± 1.6 nM | 17 ± 3 nM |  | IC50 (prostate VCaP cell line): 117 nM
COc1cc2c(cc1-c1c(C)noc1C)[nH]c1ccnc(-c3c(C)nn(C)c3C)c12 [Cpd. No. 25, 4-(8-methoxy-1-(1,3,5-trimethyl-1H-pyrazol-4-yl)-5H-pyrido[4,3-b]indol-7-yl)-3,5-dimethylisoxazole] | > 2000 nM | 163 ± 2 nM | 12.2 ± 1.7 nM |  | 22.2 ± 2.8 nM |  |  | 41.2 ± 2.2 nM | 343 ± 5 nM |  | 65 ± 24 nM | 35.9 ± 8.8 nM | IC50 [10]: 119 nM
COc1cc2c(cc1-c1c(C)noc1C)[nH]c1ccnc(-c3c(C)n[nH]c3C)c12 [Cpd. No. 22, 4-(1-(3,5-dimethyl-1H-pyrazol-4-yl)-8-methoxy-5H-pyrido[4,3-b]indol-7-yl)-3,5-dimethylisoxazole] | > 2000 nM | 101 ± 22 nM | 21 ± 3.3 nM | 44.1 ± 6.4 nM | 15.4 ± 3.2 nM | 40 ± 6.4 nM | 27.9 ± 6.8 nM | 34 ± 2.1 nM |  | 16.1 ± 2.8 nM |  | 24.4 ± 6.2 nM | Kd (BRD3 BD2 [11]): 18.7 ± 4.9 nM; Kd (BRD3 BD1 [12]): 17.9 ± 8.8 nM; IC50 [7]: 183 ± 38 nM; IC50 (MV4;11; cell growth inhibition): 61 ± 28 nM
COc1cc2c(cc1-c1c(C)noc1C)[nH]c1ncnc(-c3c(C)[nH]c4ccccc34)c12 [Cpd. No. 44] |  |  |  |  |  | 27 ± 14.5 nM | 10.2 ± 4.5 nM | 33.8 ± 8.2 nM |  |  |  | 11 ± 4.7 nM | IC50 (MOLM-13): < 100 nM; IC50 (MV-4-11): < 100 nM; Kd (BRD3 BD2 [11]; BLI, read-out: Kd (nM) BRD3 BD2): 10.6 ± 1.1 nM; Kd (BRD3 BD1 [12]; BLI, read-out: Kd (nM) BRD3 BD1): 17 ± 7 nM
COc1cc2c(cc1-c1c(C)noc1C)[nH]c1nc(C(=O)NC3CCN(CCCNC(=O)c4ccc(-c5c6ccc(=O)cc-6oc6cc(O)ccc56)c(C(=O)O)c4)CC3)nc(-c3ccnc4ccc(F)cc34)c12 [Cpd. No. 350] |  |  |  |  |  |  |  |  |  |  |  |  | Kd (BRD4 BD1 [13]): 5.5 nM; Kd (BRD2 BD2 [14]): 2.2 nM; Kd (BRD3 BD2 [15]): 0.6 nM; Kd (BRD4 BD2 [16]): 3 nM; Kd (BRD3 BD1 [17]): 6.5 nM; Kd (BRD2 BD1 [18]): 2 nM
